# Data taken from PMC5766511 (Scientific Reports, 2018).
# “Also recorded” adds a separate entry of the source.
# Key:
# [1] = biological target: HLA-DR3 (DRB1*03:01) heterodimer (Homo sapiens, UniProt P01903+P01911, A100K/A102G/A103R/A169T/F55Y/I96L/K41T/L162R/M171V/P40S/Q125H/Q178H/Q39Y/R42S/S66N/T106N/T262R/W38E/Y61H); assay: biochemical
# [2] = system: draining lymph node cells of HLA-DQ8 (DQB1*0302) transgenic mice; format: cell-based, mouse; conditions: n = 6
# [3] = system: draining lymph node cells of HLA-DR1 (DRB1*0101) transgenic mice; format: cell-based, mouse; conditions: n = 6
# [4] = system: draining lymph node cells of HLA-DR1501 (DRB1*1501) transgenic mice; format: cell-based, mouse; conditions: primed with 25 μg recombinant ZIKV Env; day 10 DLN cells; positive if > 2 SD above mean without antigen; n = 6; Fig. 2B
# [5] = system: splenocytes of ZIKV (PF13/251013-18) infected AG129 mice; format: cell-based, mouse; conditions: n = 5
# [6] = biological target: HLA-DR15 (DRB1*15:01) heterodimer (Homo sapiens, UniProt P01903+P01911); assay: biochemical; format: binding
# HLA-DR3 (DRB1*03:01) heterodimer, sequence (P01903 26-254 limits assumed, other chains not shown): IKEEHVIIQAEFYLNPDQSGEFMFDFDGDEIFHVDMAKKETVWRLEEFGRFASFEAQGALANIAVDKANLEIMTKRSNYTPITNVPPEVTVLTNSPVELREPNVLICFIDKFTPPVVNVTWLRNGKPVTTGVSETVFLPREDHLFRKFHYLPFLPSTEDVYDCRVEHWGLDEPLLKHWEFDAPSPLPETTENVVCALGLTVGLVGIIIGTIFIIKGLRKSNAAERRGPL
compound,measurement,setting,value
CC[C@H](C)[C@H](NC(=O)[C@@H](NC(=O)[C@H](CCCCN)NC(=O)[C@H](C)NC(=O)[C@H](C)N)[C@@H](C)O)C(=O)N[C@@H](C)C(=O)N[C@@H](Cc1ccc(O)cc1)C(=O)N[C@@H](CC(=O)O)C(=O)N[C@@H](CCC(=O)O)C(=O)N[C@@H](CCC(=O)O)C(=O)N[C@@H](C)C(=O)N[C@@H](CCCNC(=N)N)C(=O)N[C@@H](CCCNC(=N)N)C(=O)NCC(=O)N[C@@H](CC(C)C)C(=O)N[C@@H](CCC(=O)O)C(=O)O [MT2-16],IC50,[1],50 nM
"KAACPTMGEAHNDKRADPAF [WNV P8, WNV Env variant of ZIKV Env peptide 8]","IFNγ ELISpot response of ZIKV Env primed T cells to peptide (in words), HLA-DQ8",[2],cross-reactive epitope recognition
FNCLGMSNRDFLEGVSGATW [WNV P1],"IFNγ ELISpot response of ZIKV Env primed T cells to peptide (in words), HLA-DR1",[3],significant responses
same,"IFNγ ELISpot response of ZIKV Env primed T cells to peptide (in words), HLA-DR1501",[4],cross-reactive responses
same,"IFNγ ELISpot response of ZIKV Env primed T cells to peptide (in words), HLA-DQ8",[2],significant responses
same,IFNγ ELISpot response of splenic cells to peptide,[5],Strong responses; also recorded: of similar magnitude to the ZIKV p1 response
CC(C)C[C@H](NC(=O)[C@H](Cc1ccc(O)cc1)NC(=O)[C@H](C)NC(=O)[C@H](CCCNC(=N)N)NC(=O)[C@H](CC(C)C)NC(=O)[C@H](CCC(N)=O)NC(=O)[C@H](CCC(=O)O)NC(=O)[C@H](C)NC(=O)[C@@H](N)CCC(=O)O)C(=O)N[C@@H](CC(=O)O)C(=O)NCC(=O)N[C@H](C(=O)NCC(=O)N[C@H](C(=O)N[C@@H](CCC(=O)O)C(=O)O)C(C)C)[C@@H](C)O [A3 152–166],IC50,[6],40 nM
